Measured values as given in PubChem BioAssay (NCI).
“And” between values parts separate entries of the source, which are not always exact repeats. Equal values may be shown once.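 Five compound concentrations were applied to cells in 96-well plates for 48 hours; endpoints were derived by simple linear interpolation of the resulting dose-response curve. GI50 marks 50% less growth. TGI: total growth inhibition.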

What was measured:
Assay in all cases: NCI anticancer screen, dose series, 48 h
[1] = tested on: HCC-2998 colon
[2] = tested on: OVCAR-3 ovarian
[3] = tested on: RXF 393 renal
[4] = tested on: SK-MEL-28 melanoma
[5] = tested on: HT29 colon
[6] = tested on: HOP-92 NSCLC
[7] = tested on: SF-295 CNS
[8] = tested on: CAKI-1 renal
[9] = tested on: HOP-62 NSCLC
[10] = tested on: NCI-H226 lung
[11] = tested on: A549 NSCLC
[12] = tested on: UACC-62 melanoma

SMILES | TGI [1] | TGI [2] | TGI [3] | TGI [4] | TGI [5] | TGI [6] | TGI [7] | TGI [8] | TGI [9] | TGI [10] | TGI [11] | TGI [12] | GI50 [2] | GI50 [4] | GI50 [5] | GI50 [6] | GI50 [7] | GI50 [10] | GI50 [11]
Oc1ccc(Cl)cc1CN1CCN(Cc2cc(Cl)ccc2O)C1 | 2.97 µM | 11.8 µM | 4.14 µM | 6.78 µM | 13 µM | 5.15 µM | 7.73 µM | 6.48 µM | 2.79 µM | 4.66 µM | 9.85 µM | 3.94 µM | – | – | – | – | – | – | –
COc1ccc2cc(CN3CCC(C4CCNCC4)CC3)ccc2c1 | 1.41 µM | 15.8 µM | 5.19 µM | 3.27 µM | 2.65 µM | 5.75 µM | 3.5 µM | 6.03 µM | 8.98 µM | 29.2 µM | 36.8 µM | 3.87 µM | – | – | – | – | – | – | –
O=C1CC(c2cccc(Br)c2)n2cccc21 (stereo unspecified) | > 100 µM | > 100 µM | > 100 µM | > 100 µM | > 100 µM | > 100 µM | > 100 µM | > 100 µM | > 100 µM | > 100 µM | > 100 µM | > 100 µM | – | – | – | – | – | – | –
CC1=C(C(=O)c2ccccc2)C23C(=O)N(c4ccccc4)C(=O)C2=C(O)C=CC3(O)N1 (stereo unspecified) | 56.4 µM | 58.9 µM | 43 µM | 39.2 µM | 32.3 µM | 60 µM | > 100 µM | > 100 µM | > 100 µM | > 100 µM | > 100 µM | 48 µM | – | – | – | – | – | – | –
CCOP(=O)(OCC)C(C#N)Cc1ccco1 (stereo unspecified) | > 10 µM | > 10 µM | > 10 µM | > 10 µM | > 10 µM | > 10 µM | > 10 µM | > 10 µM | > 10 µM | > 10 µM | > 10 µM | > 10 µM | – | – | – | – | – | – | –
CC1OC(OC2C(OC(=O)[C@]34CCC(C)(C)C[C@H]3C3=CC[C@@H]5[C@@]6(C)CC[C@H](OC7OC(C(=O)O)C(O)C(OC8OCC(O)C(O)C8O)C7O)C(C)(C)[C@@H]6CC[C@@]5(C)[C@]3(C)CC4)OCC(O)C2O)C(O)C(OC2OCC(O)C(O)C2O)C1OC1OCC(O)C(OC2OCC(O)C(O)C2O)C1O (stereo partly specified) | 4.13 µM and 11.9 µM | 50.4 µM and > 100 µM | 37.5 µM and 42.9 µM | 15.9 µM and 30.8 µM | 15 µM and 24.2 µM | 17.4 µM and 26.6 µM | 18.9 µM and 30.2 µM | 18.8 µM and 23.1 µM | 30.7 µM and 32.6 µM | 24.6 µM and 39.7 µM | 16.9 µM and 28.4 µM | 36.1 µM and 58.1 µM | 13 µM and 35 µM | 5.5 µM and 16.3 µM | 4.28 µM and 11.9 µM | 6.12 µM and 13 µM | 5.98 µM and 15.4 µM | 9.29 µM and 19.1 µM | 5.06 µM and 14.3 µM
CCOC(=O)C(Cc1cccn1C(=O)OC(C)(C)C)[N+](=O)[O-] (stereo unspecified) | 42.4 µM | 98.2 µM | 34.4 µM | 69 µM | 50.3 µM | 74.2 µM | 99.4 µM | 64.5 µM | 56.7 µM | 67.3 µM | > 100 µM | 42.9 µM | – | – | – | – | – | – | –
CC(C)=CCC/C(C)=C/CC/C(C)=C/CC/C(=C/CC/C(C)=C\CC/C(C)=C/CC/C(C)=C/CC/C(C)=C/Cc1cc(O)ccc1O)CO | > 42.1 µM | 16.5 µM | 2 µM | 10.9 µM | 18.9 µM | 31.4 µM | 5.85 µM | 4.82 µM | 41.3 µM | 6.54 µM | 22.6 µM | 5.17 µM | – | – | – | – | – | – | –
O=c1c(=O)c2c(Br)sc(Br)c2c1=O | > 100 µM | 35.2 µM | 34.7 µM | 28.7 µM | 57.4 µM | 33 µM | > 100 µM | 33.4 µM | > 100 µM | > 100 µM | > 100 µM | 39.3 µM | – | – | – | – | – | – | –
Nc1nn2c(nc(N)c3c(N)[nH]nc32)c1N=Nc1ccc(Br)cc1 | > 100 µM | > 78 µM | > 100 µM | > 94.2 µM | > 100 µM | 28.1 µM | > 100 µM | > 100 µM | > 93 µM | > 100 µM | > 100 µM | > 100 µM | – | – | – | – | – | – | –
CCCCON1C[C@H](OC(C)=O)C(OC(C)=O)[C@H](OC(C)=O)C1 (stereo partly specified) | > 100 µM | > 100 µM | > 100 µM | > 100 µM | > 100 µM | > 100 µM | > 100 µM | > 100 µM | > 100 µM | > 100 µM | > 100 µM | > 100 µM | – | – | – | – | – | – | –
CCOC(=O)C(NC(=O)c1ccccc1)(N1CCOCC1)C(F)(F)F (stereo unspecified) | > 100 µM | > 100 µM | > 100 µM | > 100 µM | > 100 µM | > 100 µM | > 100 µM | > 100 µM | > 100 µM | > 100 µM | > 100 µM | > 100 µM | – | – | – | – | – | – | –
